From the supplement of paper PMC10326909

Experiment: ESI positive response factor (isotope-corrected peak area per molar concentration) in SFC/ESI/HRMS (area units per M); higher = higher ionization efficiency
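Note: standards in acetonitrile/water run in triplicate on a zwitterionic HILIC column, CO2–methanol gradient containing 20 mmol/L ammonium acetate, postcolumn makeup flow, Orbitrap full-scan detection.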

SMILES | ESI positive response factor (0.0875 µM) | ESI positive response factor (0.35 µM) | ESI positive response factor (0.875 µM) | ESI positive response factor (0.0175 µM) | ESI positive response factor (0.035 µM) | ESI positive response factor (0.175 µM) | further results
CN1C(C)(C)CC(O)CC1(C)C [1,2,2,6,6-Pentamethyl-4-piperidinol] | 5.02e+17 | 4.69e+17 | 4.18e+17 | 4.91e+17 | 5.26e+17 | 4.63e+17 | ESI positive response factor (1.75 µM): 3.68e+17
CN1CCN(C)C1=O [1,3-Dimethyl-2-imidazolidinone] | 6.75e+16 | – | – | 6.51e+16 | 7.85e+16 | 6.53e+16 | –
Cn1cnc2c1c(=O)n(CCCC(=O)O)c(=O)n2C [1-(3-Carboxypropyl)-3,7-dimethyl-xanthin] | 2.2e+16 | 2.34e+16 | 2.22e+16 | 1.77e+16 | 2.12e+16 | 2e+16 | –
CC(O)CN(CCO)CCO (stereo not drawn) [1-[N,N-Bis(2-hydroxyethyl)amino]-2-propanol] | 3.24e+17 | 2.94e+17 | – | 2.91e+17 | 3.14e+17 | 2.77e+17 | –
c1ccc2[nH]nnc2c1 [1H-Benzotriazol] | 1.11e+16 | 1.37e+16 | – | – | 7.96e+15 | 1.18e+16 | –
CC1(C)CC(O)CC(C)(C)N1 [2,2,6,6-Tetramethyl-4-piperidinol] | 1.53e+17 | 1.58e+17 | – | 1.95e+17 | 1.78e+17 | 1.47e+17 | –
Nc1nc(N)c2nc(CO)cnc2n1 [2,4-Diamino-6-(hydroxymethyl)pteridine] | 4.27e+16 | 3.92e+16 | 4.05e+16 | 2.75e+16 | 4.33e+16 | 3.56e+16 | –
NC(=O)c1c(Cl)cccc1Cl [2,6-Dichlorbenzamid] | 2.14e+16 | 2.46e+16 | 2.38e+16 | – | 1.78e+16 | 2.26e+16 | –
CCCCCC(C)N (stereo not drawn) [2-Aminoheptane] | 1.47e+16 | – | – | – | 1.87e+16 | – | –
Nc1ccccn1 [2-Aminopyridine] | 1.55e+16 | 1.73e+16 | – | – | 1.33e+16 | 1.48e+16 | –
c1ccc(CC2=NCCN2)cc1 [2-Benzylimidazoline] | – | 5.75e+15 | 5.13e+15 | – | – | 4.79e+15 | ESI positive response factor (1.75 µM): 4.96e+15
CCCCC(CC)CN (stereo not drawn) [2-Ethyl-1-hexylamine] | – | 1.94e+16 | – | – | – | 2.01e+16 | –
O=S(=O)(O)c1ccc2nc(-c3ccccc3)[nH]c2c1 [2-Phenyl-5-benzimidazole] | 7.22e+14 | 3.87e+15 | 4.7e+15 | – | – | – | ESI positive response factor (1.75 µM): 4.96e+15
OCC[C@@H]1CCCC[NH2+]1 [2-Piperidineethanol] | – | – | – | – | – | – | ESI positive response factor (0.0122 µM): 1.24e+17; ESI positive response factor (0.0244 µM): 1.22e+17; ESI positive response factor (0.061 µM): 9.77e+16; ESI positive response factor (0.122 µM): 1.07e+17; ESI positive response factor (0.244 µM): 1.07e+17
O=C1CCCN1 [2-Pyrrolidinone] | – | 8.52e+15 | 1.07e+16 | – | – | 8.26e+15 | ESI positive response factor (1.75 µM): 8.7e+15
C[NH2+]C[C@H](O)CO [3-Methylamino-1,2-propanediol] | – | – | – | – | – | – | ESI positive response factor (0.0122 µM): 7.17e+16; ESI positive response factor (0.0244 µM): 4.4e+16; ESI positive response factor (0.061 µM): 6.78e+16; ESI positive response factor (0.122 µM): 6.39e+16; ESI positive response factor (0.244 µM): 7.28e+16; ESI positive response factor (0.61 µM): 6.66e+16
C1CN(CCOCCN2CCOCC2)CCO1 [4,4'-(Oxydi-2,1-ethanediyl)bismorpholine] | 1.92e+17 | 3.23e+17 | 4.13e+17 | 4.89e+17 | – | 3.18e+17 | ESI positive response factor (1.75 µM): 3.43e+17
Cc1cc(=O)oc2cc(O)ccc12 [4-Methylumbelliferone] | – | – | – | – | – | – | ESI positive response factor (0.0122 µM): 7.52e+16; ESI positive response factor (0.0244 µM): 8.88e+16; ESI positive response factor (0.061 µM): 7.61e+16; ESI positive response factor (0.122 µM): 7.61e+16; ESI positive response factor (0.244 µM): 7.56e+16
COC(=O)C1=CCCN(C)C1 [Arecolin] | 4.13e+17 | 3.77e+17 | – | 4.44e+17 | 4.27e+17 | 3.78e+17 | –
COC(=O)NS(=O)(=O)c1ccc(N)cc1 [Asulam] | 1.31e+16 | 1.46e+16 | 1.49e+16 | – | 1.24e+16 | 1.29e+16 | ESI positive response factor (1.75 µM): 1.43e+16
CCNc1nc(Cl)nc(NC(C)C)n1 [Atrazine] | 9.8e+17 | – | – | 1.04e+18 | 1.07e+18 | 9.03e+17 | –
COP(=O)(OC)SCn1c(=O)oc2cc(Cl)cnc21 [Azamethiphos] | 6.44e+17 | – | – | 6.62e+17 | 7.29e+17 | 6.11e+17 | –

Further lines, with some results ahead:

ESI positive response factor (0.0875 µM) | ESI positive response factor (0.35 µM) | ESI positive response factor (0.875 µM) | ESI positive response factor (0.0175 µM) | ESI positive response factor (0.035 µM) | ESI positive response factor (0.175 µM) | SMILES | further results
1.56e+15 | 6.42e+15 | 6.4e+15 | – | – | – | CC(=O)N1CC(O)C[C@H]1C(=O)O (stereo in doubt) [Trans-1-acetyl-4-hydroxy-L-prolin] | ESI positive response factor (1.75 µM): 6.39e+15
– | – | – | 1.78e+16 | 2.97e+16 | – | O=c1ccnc[nH]1 [4-Pyrimidinol] | –
8.08e+14 | 2.17e+15 | 2.09e+15 | – | – | – | Cn1c(N)c(NC=O)c(=O)n(C)c1=O [6-Amino-1,3dimethyl-5-(formylamino)uracil] | ESI positive response factor (1.75 µM): 2.18e+15
1.85e+16 | 1.71e+16 | – | – | 1.46e+16 | 1.59e+16 | C#C[C@]1(O)CC[C@H]2[C@@H]3CCc4cc(O)ccc4[C@H]3CC[C@@]21C [17-Alpha-Ethinylestradiol] | –
– | 3.14e+15 | 3.18e+15 | – | – | 3.1e+15 | CC(=O)NCCCS(=O)(=O)O [Acamprosate] | ESI positive response factor (1.75 µM): 3.25e+15
4.18e+16 | 4.29e+16 | – | 3.61e+16 | 4.56e+16 | 3.74e+16 | CC(=O)Nc1ccc(O)cc1 [Acetaminophen] | –
2.4e+17 | 2.13e+17 | – | 2.2e+17 | 1.98e+17 | 2.16e+17 | CC(=O)OCC[N+](C)(C)C [Acetylcholine] | –
1.26e+17 | – | – | – | 1.46e+17 | – | Nc1ncnc2c1ncn2C1OC(CO)C(O)C1O (stereo not drawn) [Adenosine] | –
3.69e+17 | 4.54e+17 | – | – | 4.1e+17 | 4.36e+17 | CN(C)CCC=C1c2ccccc2CCc2ccccc21 [Amitriptyline] | –
1.82e+17 | 1.8e+17 | – | 1.75e+17 | 1.81e+17 | 1.75e+17 | CC(C)NCC(O)COc1ccc(CC(N)=O)cc1 (stereo not drawn) [Atenolol] | –
1.52e+16 | 1.55e+16 | – | – | 1.45e+16 | 1.36e+16 | O=c1[nH]sc2ccccc12 [Benzisothiazolinone] | –
1.14e+17 | – | – | 1.5e+17 | 1.36e+17 | – | C[N+](C)(C)CC(=O)O [Betaine] | –
9.48e+17 | – | – | 8.07e+17 | 8.73e+17 | 9.83e+17 | CCCCC(CC)CNCC(CC)CCCC (stereo not drawn) [Bis(2-ethylhexyl)amine] | –
1.65e+17 | 1.6e+17 | – | 1.43e+17 | 1.76e+17 | 1.64e+17 | CC(C)NCC(O)COc1ccc(C(=O)O)cc1 (stereo not drawn) [Bisoprolol-M3] | –
